According to patent US7723537B2, “Skin lightening agents, compositions and methods” (Unilever Home & Personal Care USA, Division of Conopco, Inc., priority 2004, dated 2010):

Assays:
B16 mouse melanoma cells = test: Cell based assay: melanin synthesis in B16 mouse melanoma cells; conditions: 6.25 micromolar, 72 hours, absorbency of medium at 530 nm, read-out: % of Control (Melanin Synthesis)
Description: This experiment was carried out using a cell based assay.
B16 mouse melanoma cells were utilized in the following experiment to evaluate the efficacy of skin lightening agents. B16 cells were plated in 96-well microtiter plates at a density of 5000 cells per well and cultured overnight in Dulbecco's Modified Eagle's Medium (phenol red free) containing 10% fetal bovine serum and 1% penicillin/streptomycin at 37° C. in the presence of 5% CO2. After 24 hours, the medium was replaced with fresh growth medium containing the treatments. All cultures were incubated for 72 hours at which time melanin was visible in the control treatment. The melanin-containing medium was transferred to a clean 96-well plate and quantified by reading the absorbency at 530-nm. Cell viability was assessed by measurement of lactate dehydrogenase levels to ensure the decrease in melanin was not a result of cellular toxicity.

mushroom tyrosinase = test: Mushroom tyrosinase assay; assay type: biochemical; conditions: for Tyrosinase activity (% of ethanol control): slope of 475-nm absorbency vs ethanol control, L-DOPA substrate; for effectiveness in skin lightening as measured by the mushroom tyrosinase assay (in words): compared with 4-ethyl resorcinol
Description: Mushroom tyrosinase inhibition is indicative of reduction in melanin synthesis, thereby showing skin lightening effect.
Into each well of a 96-well plate, 150 microliters of phosphate buffer (100 mM, pH 7.0), 10 microliters of L-DOPA (L-3,4-Dihydroxyphenylalanine, 10 mM), and 20 microliters of skin lightening agent (dissolved in ethanol, which is the control) were added. Following an initial measurement of background absorbency at 475-nm, 20 microliters of mushroom tyrosinase (Sigma T-7755; 6050 units/ml) was added and incubated at room temperature.
Absorbency was read at 475-nm over the following time points: 0, 2, 4, and 6.5 minutes. The data is plotted as 475-nm absorbency vs. time (minutes) and the slope of the line is calculated (ΔAbs 475 nm/min). Values are expressed as the percentage of the respective untreated ethanol control reaction.

Compound	activity at 6.25 µM (B16 mouse melanoma cells)	Tyrosinase activity (% of ethanol control) (mushroom tyrosinase; 0.1 micro-M)	Tyrosinase activity (% of ethanol control) (mushroom tyrosinase; 1 micro-M)	Tyrosinase activity (% of ethanol control) (mushroom tyrosinase; 10 micro-M)	Tyrosinase activity (% of ethanol control) (mushroom tyrosinase; 100 micro-M)	Tyrosinase activity (% of ethanol control) (mushroom tyrosinase; 1.56 micro-M)	Tyrosinase activity (% of ethanol control) (mushroom tyrosinase; 12.5 micro-M)	effectiveness in skin lightening as measured by the mushroom tyrosinase assay (in words) (mushroom tyrosinase)
CCc1ccc(O)cc1O [4-Ethyl Resorcinol, reference compound]	34%	72.7%	46.3%	30.8%	20.7%	–	–	–
O=c1ccc2ccc(O)cc2o1 [7-Hydroxy Coumarin, reference compound]	–	104%	100%	108%	117%	–	–	–
CC1CC(=O)Oc2cc(O)ccc21 (stereo not drawn) [B1, 7-hydroxy-3,4-dihydro-4-methylcoumarin]	75.8%	–	94.2%	–	75.3%	90.4%	70.4%	not effective in skin lightening
COC(=O)CC(C)c1ccc(O)cc1O (stereo not drawn) [D1, Methyl 3-(2,4-dihydroxyphenyl)-butyrate]	36.4%	–	73.1%	–	41.0%	39.3%	35.8%	substantially as effective as 4-ethyl resorcinol
CC(CC(=O)O)c1ccc(O)cc1O (stereo not drawn) [II, 3-(2,4-dihydroxyphenyl)-butyric acid]	32.8%	–	73.3%	–	20.6%	41.6%	28.0%	substantially as effective as 4-ethyl resorcinol
